Test results reported in US12679825B2, “Crystalline and amorphous forms of a δ-opioid modulator” (Trevena, Inc., priority 2020, dated 2026).
In brackets after ≈: the same amount, converted by molar mass. Entries after “also recorded” stand apart in the source; their conditions may differ.

Key:
Type in all cases: physicochemical
[1] = Dynamic Vapour Sorption (DVS)
Experimental: The following results and observations were obtained from this experiment (see Table 4 for further details): • After anti-solvent addition to the solutions at 20° C., the experiment carried out using tBME as the initial solvent system had solid adhered to the vial walls. The experiments carried out using MEK and THF as the initial solvent systems were cloudy, with some oil/gum formation noted. • After temperature cycling overnight, all experiments formed slurries. […] (peak at 98° C.) during the first heat. A glass transition with a mid-point half-height of ca. 32° C. was observed during the first cool. […] The residual tBME could not be quantified, due to overlapping signals with the API. Residual heptane was observed, equal to 0.91% w/w, or 0.05 equivalents. • ^1H NMR spectroscopy of the crystalline Form I isolated from MEK:heptane 20:80 v/v % was consistent with the structure of the compound of Formula I free base. The residual MEK could not be quantified, due to overlapping signals with the API. Residual heptane was observed, equal to 0.51% w/w, or 0.02 equivalents. • ^1H NMR spectroscopy of the crystalline Form I isolated from THF:heptane 22:78 v/v % was consistent with the structure of the compound of Formula I free base. The residual THF could not be quantified, due to overlapping signals with the API.
Crystalline forms of the compound of Formula I, including the crystalline Form I, were analyzed using Dynamic Vapour Sorption (DVS). Approximately 10-15 mg of sample was placed into a mesh vapour sorption balance pan and loaded into a DVS Intrinsic dynamic vapour sorption balance by Surface Measurement Systems. The sample was subjected to a ramping profile from 40-90% relative humidity (RH) at 10% increments, maintaining the sample at each step until a stable weight had been achieved (dm/dt 0.004%, minimum step length 30 minutes, maximum step length 120 minutes) at 25° C. After completion of the sorption cycle, the sample was dried using the same procedure to 0% RH and then a second sorption cycle back to 40% RH was carried out. Two cycles were performed. The weight change during the sorption/desorption cycles were plotted, allowing the hygroscopic nature of the sample to be determined. XRPD analysis was then carried out on the residual solid.

[2] = 14-day stability testing (XRPD, HPLC, appearance); parameters: key to XRPD after storage: CRY: Crystalline; details: 14 days; for Post-Storage Observations (appearance): input White solid (NE12); for 14-Day Stability, Solid Purity after storage: open vial, input 98.9% area
Experimental: Crystalline forms of the compound of Formula I, including the crystalline Form I, were analyzed regarding stability. Approximately 10 mg of free base Form I was subjected to 14-day stability testing under the following conditions to assess developability: • 40° C./75% RH (open vial); • Ambient light, temperature and humidity conditions (open vial).
After 2 weeks under the specified conditions, XRPD and HPLC analysis was carried out on the resultant solid material. The sample appearance was monitored over 14 days.

[3] = Aqueous solubility study (slurry in deionized water, HPLC); parameters: key to XRPD of residual solid, Wet / XRPD of residual solid, Dry: CRY: Crystalline
Experimental: The aqueous solubility of the crystalline Form I was assessed using the following procedure: • Approximately 10 mg of the dried material was slurried in deionized water (100 μL) at 20° C. with stirring. • Further aliquots of water (50 μL) were added until a mobile slurry was obtained. A total of 600 μL was used. • The slurry was stirred at 20° C. for 24 h then separated by centrifugation (0.22 μm nylon filter). • The residual solid was analyzed by XRPD and then dried under vacuum at ambient temperature (ca. 20° C.) for 72 h, prior to re-analysis by XRPD. The results are shown in FIG. 45. • The pH of the mother liquor was measured. • The mother liquors were analyzed by HPLC for purity and concentration.

[4] = Spectrometric (UV-metric) pKa; details: base; aqueous value by Yasuda-Shedlovsky extrapolation from methanol-water co-solvent; 25.0±0.2° C.; 0.15 M KCl
Experimental: Crystalline forms of the compound of Formula I, including the crystalline Form I, were analyzed using pKa and LogP. An automated titrator system with an incorporated UV-Vis spectrometer (SiriusT3™, Pion Inc.) was used to acquire the spectrometric and potentiometric data. The optical system consisted of a photodiode array detector with a deuterium lamp and a fiber optic dip probe.
The titrator module consisted of a temperature controller (by Peltier device with in-situ thermocouple), pH electrode, an overhead stirrer, and motorized dispensers for the automatic delivery of assay titrants and reagents via capillaries. The instrumentation was operated using SiriusT3Control software (V2.0). Data processing and generation of the reported pKa and logP values was carried out using SiriusT3Refine software (V2.0). The titrants used were 0.5 M hydrochloric acid and 0.5 M potassium hydroxide, standardized using potassium hydrogen phthalate. ACS or HPLC grade methanol cosolvent was used for pKa determination. Spectrophotometric experiments were carried out in the presence of a mid-range buffer solution (15 mM di-potassium hydrogen orthophosphate) or Neutral Linear Buffer™ to prevent uncontrolled pH-drift at mid-range pH. For logP assays, ACS or HPLC grade 1-octanol was used as the partition solvent.
All experiments were carried out at a controlled temperature of 25.0±0.2° C. […]

DVS mass uptake ([1]; 25° C./80% RH, material isolated from tBME:heptane 50:50 v/v %): ca. 0.5 % w/w
Water Uptake (DVS, 25° C.) At 25° C./80%, RH ([1]; 25° C./80% RH, tBME:Heptane 50:50): 0.5%
Post-DVS XRPD ([1]; form after DVS analysis): retained; also recorded: Form I
Hygroscopicity (DVS) ([1]; material isolated from tBME:heptane 50:50 v/v %): slightly hygroscopic
Decrease in purity after storage (HPLC) ([2]; 40° C./75% RH and ambient conditions): ≤ 0.3 % area
14-Day Stability, form by XRPD ([2]; 40° C./75% RH): retained; also recorded: Form I
XRPD after storage ([2]; 40° C./75% RH): CRY
Post-Storage Observations (appearance) ([2]; 40° C./75% RH): White solid (NE12)
14-Day Stability, Solid Purity after storage ([2]; 40° C./75% RH): 99.0 % area
14-Day Stability, Solid Purity after storage ([2]; Ambient light, temperature and humidity): 98.6 % area
14-Day Stability, form by XRPD ([2]; Ambient): retained; also recorded: Form I
XRPD after storage ([2]; Ambient): CRY
Post-Storage Observations (appearance) ([2]; Ambient): White solid (NE12)
XRPD of residual solid, Dry ([3]; after slurrying in water and drying under vacuum 72 h): CRY
XRPD of residual solid, Wet ([3]; after slurrying in water at 20° C. for 24 h): CRY
solubility at 24 h ([3]; thermodynamic from solid, deionized water, 20° C., slurry stirred 24 h, HPLC, mother liquor pH 6.84, read-out: Aqueous Solubility (solution concentration)): 97 µg/mL (≈ 193 µM)
Form after slurrying in water (XRPD) ([3]; water, 20° C., and after drying): retained
pKa [4]: 7.74 ± 0.04
SMILES: COCCOc1cccc([C@@H]2CCN(CCn3cccc3)[C@H](C)[C@H]2COc2ccc3c(c2)C(=O)NC3)c1 [crystalline Form I, (−)-6-{[(trans, trans)-4-[3-(2-methoxyethoxy)phenyl]-2-methyl-1-[2-(1H-pyrrol-1-yl)ethyl]piperidin-3-yl]methoxy}-2,3-dihydro-1H-isoindol-1-one]
